Patent publication US20080108569A1, “Compositions and Methods for Treating Diseases Associated With Phlpp” (The Regents of the University of California, priority 2005, published 2008)

Tests used:
MDA-MB-231 cells = assay: apoptosis assay, sub-2N DNA by flow cytometry; type: cell-based; conditions: co-expressed with PHLPP2
Protocol: Apoptosis assays were performed as described previously (Brognard et al., 2001). Briefly, cells were transfected with different PHLPP expression constructs or siRNAs. In the case of gating for transfected cells, a GFP expression construct was co-transfected into the cells. Approximately 24 hours post-transfection, the cells were switched to low serum medium (DMEM plus 0.1% FBS) and allowed to grow for an additional 48 hours. For LY294002 (25 μM) treatment, the drug was added at the time when the cells were switched into the low serum medium. The cells were collected and stained with propidium iodide (25 μg/ml). Apoptotic cells were defined as sub-2N DNA containing cells. Quantification of apoptosis was obtained using flow cytometry analysis with a Becton Dickinson FACSort.
Apoptotic assays were performed as described above. To determine G1/S ratios, cells were co-transfected with GFP and HA-PHLPP2 and incubated under high serum (10% FBS) conditions for 48 hrs and cells were gated based on GFP expression as described above. For BrdU incorporation assays, cells were transfected with 100 nM siRNA (si-1) and incubated for 48 hrs prior to performing assay following manufacturers protocol (Oncogene Research Products).

PHLPP-1α = biological target: T1, PHLPP-1α (Homo sapiens, UniProt O60346); assay: okadaic acid sensitivity of PHLPP-1α mediated dephosphorylation of Akt at Ser473 in 293T cells; type: cell-based; conditions: OA 1 μM for 15 minutes, 293T cells transfected with HA-PHLPP-1α
T1 construct: The full-length human PHLPP-1α cDNA was cloned by combining the following cDNA fragments; expressed in transfected cells; host or cells: 293T cells
T1 sequence (O60346 1-1205 isoform O60346-2): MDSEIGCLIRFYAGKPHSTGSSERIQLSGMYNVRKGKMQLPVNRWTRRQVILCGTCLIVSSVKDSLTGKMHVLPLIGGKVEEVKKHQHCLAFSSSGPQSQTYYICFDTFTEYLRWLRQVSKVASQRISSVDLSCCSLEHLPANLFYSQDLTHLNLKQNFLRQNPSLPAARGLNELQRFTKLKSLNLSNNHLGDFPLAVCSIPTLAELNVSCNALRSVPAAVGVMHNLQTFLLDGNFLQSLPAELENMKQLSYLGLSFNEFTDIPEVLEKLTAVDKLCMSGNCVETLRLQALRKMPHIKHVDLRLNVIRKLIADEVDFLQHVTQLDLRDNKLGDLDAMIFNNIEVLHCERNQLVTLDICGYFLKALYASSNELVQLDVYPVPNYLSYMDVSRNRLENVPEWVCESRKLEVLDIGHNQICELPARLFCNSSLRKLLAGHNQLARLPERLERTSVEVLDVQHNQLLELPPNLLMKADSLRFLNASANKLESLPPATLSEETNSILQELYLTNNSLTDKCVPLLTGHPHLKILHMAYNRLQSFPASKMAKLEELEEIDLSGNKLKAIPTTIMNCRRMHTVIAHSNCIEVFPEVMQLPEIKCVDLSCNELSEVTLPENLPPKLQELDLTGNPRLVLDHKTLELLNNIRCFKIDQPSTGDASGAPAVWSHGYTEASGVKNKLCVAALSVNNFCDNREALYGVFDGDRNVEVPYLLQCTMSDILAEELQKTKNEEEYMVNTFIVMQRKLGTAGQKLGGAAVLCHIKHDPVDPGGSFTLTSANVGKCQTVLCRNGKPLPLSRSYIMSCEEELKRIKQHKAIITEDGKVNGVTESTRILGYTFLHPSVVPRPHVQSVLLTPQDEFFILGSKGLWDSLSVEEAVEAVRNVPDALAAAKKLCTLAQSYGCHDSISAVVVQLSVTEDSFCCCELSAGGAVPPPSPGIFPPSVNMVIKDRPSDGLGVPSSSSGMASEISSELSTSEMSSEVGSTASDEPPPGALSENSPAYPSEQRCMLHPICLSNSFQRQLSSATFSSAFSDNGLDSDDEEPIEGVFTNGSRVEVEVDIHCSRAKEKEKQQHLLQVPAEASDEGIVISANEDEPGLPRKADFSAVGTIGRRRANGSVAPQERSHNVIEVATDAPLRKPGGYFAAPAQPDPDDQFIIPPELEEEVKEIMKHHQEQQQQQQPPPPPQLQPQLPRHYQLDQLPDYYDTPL
Protocol: FIG. 29. PHLPP-1α mediated-dephosphorylation of Akt at Ser473 is okadaic acid-insensitive. 293T cells transfected with HA-PHLPP-1α were serum starved overnight. The cells were then left untreated (lane 1), treated with insulin (100 nM) for 30 minutes (lane 2), treated with insulin for 30 minutes followed by okadaic acid (OA, 1 μM) for 15 minutes (lane 3), or treated with insulin for 30 minutes followed by OA for 15 minutes followed by LY294002 (LY, 30 μM) for 20 minutes (lane 4). Western blots showing phosphorylation of endogenous Akt as detected by P308 and P473 antibodies. Total Akt was detected using the anti-Akt antibody.

Compound: S473D: phosphomimetic and thus constitutively active Akt construct, resistant to dephosphorylation by PHLPP2
- rescue of the apoptosis induced by PHLPP2 (MDA-MB-231 cells): two-thirds

Compound: C=C1[C@@H](O)[C@@H]2O[C@]3(CC[C@H](/C=C/[C@@H](C)[C@@H]4CC(C)=C[C@@]5(O[C@H](C[C@@](C)(O)C(=O)O)CC[C@H]5O)O4)O3)CC[C@H]2O[C@@H]1[C@@H](O)C[C@H](C)[C@H]1O[C@@]2(CCCCO2)CC[C@H]1C [okadaic acid]
- sensitivity of PHLPP-1α mediated dephosphorylation of Akt at Ser473 (PHLPP-1α): insensitive
